Data on eight compounds can be found in publication PMC3630091, “A Mechanistic Paradigm for Broad-Spectrum Antivirals that Target Virus-Cell Fusion” (PLoS Pathogens, 2013).

Usually IC50 stands for the midpoint of a concentration-inhibition curve. As a reminder, the MRT last is a mean duration of stay, worked out from the concentration-time curve. A word on the Tmax: it is the time at which the peak concentration occurs. For orientation: AUC(0-t) means exposure summed from dosing to a finite time, without extrapolation to infinity. Read a high AUC(0-t) as high exposure. One may read the Cmax as the maximum level reached in the sampled fluid or tissue. Usually melting point stands for the temperature, or range, at which the solid turns liquid.

Where two headings read alike, the source gives them in different places.

For one data set, the system named is HSV. The data set is described as follows: microbe, parasite or virus in culture. The format is cell-based, Herpes simplex virus-1. The following applies: Human alphaherpesvirus 1, 10 min, read-out: IC50 ± SD (nM) (N=x) HSV.
A further data set has as its system enveloped viruses. The format is cell-based.
For another data set, the system named is NDV. The data set can be described thus: microbe, parasite or virus in culture. Format: cell-based, Newcastle disease virus. The following applies: read-out: IC50 ± SD (nM) (N=x) NDV.
Data set [1] in a line: Absorbance spectra / UV-visible spectra integration. The settings on record: for Abs Max (λmax): 100 µM in DMSO; for AUC (400-750 nm): integrated absorption divided by concentration, normalized relative to LJ001 (LJ001 = 100); for total integrated absorption (AUC), times that of LJ001: λ = 400 to 750 nm. Format: physicochemical.
Data set [2] can be described thus: Singlet oxygen quenching measurements. Format: physicochemical. The following applies: 355 nm with C60 as external sensitizer; error is one standard deviation.
In a further data set the test system is RVFV ZH501. The format is in vivo, Balb/c mice. The settings on record: for time-to-death / survival compared to untreated controls: 20 pfu RVFV ZH501 IP, IP once a day for 7 days from 1 h post-challenge, JL118 1.25 mg/kg, JL122 and JL103 10 mg/kg.
Data set [3] in a line: Membrane partition into HIV membrane-like mixture LUV (fluorescence). The settings on record: for IL / Iw: HIV-like mixture LUV, fluorescence intensity ratio from curve fitting.
The nature of another data set: Pharmacokinetics in mice. The settings on record: for MRT last / Tmax / AUC(0-t) / Cmax: female, Balb/c, mouse, in vivo; for improvements in relevant pharmacokinetic (PK) parameters compared to LJ001: half-life, AUC, bioavailability, clearance.
Another data set in a line: in vitro. The settings on record: human.
The subject of another data set is HIV-1JR-CSF. Format: cell-based.
The test system of a further data set is HIV. The data set can be described thus: microbe, parasite or virus in culture. The format is cell-based. The settings on record: Human immunodeficiency virus 1, 10 min, read-out: IC50 ± SD (nM) (N=x) HIV.
The nature of data set [4]: Membrane partition into POPC LUV (fluorescence). The following applies: for IL / Iw: POPC LUV, fluorescence intensity ratio from curve fitting.
Data set [5] in a line: Singlet oxygen quantum yield measurements. The following applies: for 1O2 QY 355 nm: in CD2Cl2, excitation 355 nm; for 1O2 QY 355 nm / 1O2 QY 532 nm: error is one standard deviation; for 1O2 QY 532 nm: in CD2Cl2, excitation 532 nm. Format: physicochemical.
Data set [6] in a line: Acrylamide quenching in POPC vesicles. Format: physicochemical. The settings on record: >50-fold molar excess of lipid; 3 mM POPC vesicles.
For data set [7] the following is noted: reference sensitizer value; cited from earlier work.
Data set [8] in a line: Clinical observations after single dose in PK study. The format is in vivo, female Balb/c mice. The settings on record: single dose 2.5 mg/kg ip, about 15 min post administration. How it is done:
Dose administration. […] These mice were replaced and the dose level was reduced to 5 mg/kg. […] Hypoactivity was the only clinical observation noted in some of the mice treated with the 3 test articles at 10 and 100 mg/kg po. […] These animals were replaced and administered with the lower ip dose level of 1.25 mg/kg and underwent blood collections. Mice received single ip doses of 1.25 mg/kg (JL109 and JL118) or 5 mg/kg (JL122) and po doses of 10 mg/kg (JL109, JL118, JL122), 50 mg/kg (JL109, JL118), or 100 mg/kg (JL109, JL118, JL122).

In the case of `CCN1C(=S)O/C(=C\c2ccc(-c3c(OC)cc(OC)cc3OC)o2)C1=S` [JL122, (Z)-3-ethyl-5-((5-(2,4,6-trimethoxyphenyl)furan-2-yl)methylene)oxazolidine-2,4-dithione], the concentration for half-maximal inhibition (IC50) in the data set with HSV was 2.4 ± 1.4 nM; with NDV (avian paramyxovirus 1, 10 min) it was 0.9 ± 0.8 nM; in the data set with HIV, 64 ± 41.5 nM. For the same compound, in the data set on enveloped viruses, the “improved in vitro potency compared to LJ001” value is given as 10-100 fold. Moreover, in [1], the “Abs Max (λmax)” value amounted to 545 nm. Further, the “AUC (400-750 nm)” value in data set [1] was found to be 153. The “total integrated absorption (AUC), times that of LJ001” value in data set [1] is 1.53 times. For the same compound, the “kT × 10-7” value in data set [2] was 1.970 ± 0.050 M-1s-1. Further, the “time-to-death / survival compared to untreated controls” value in the data set with RVFV ZH501 is on record as “moderate but significant delay in time-to-death”. Besides, the Median survival in the data set with RVFV ZH501 (50 pfu RVFV ZH501 IP, 10 mg/kg IP at 1, 12, 24 and 48 h post-challenge, n = 5) came to 6 days. Also, the Kp at 10 min, 50 µM in data set [3] was found to be 267; in data set [4] it was 1130. The “IL / Iw” value is 613.7 in data set [3] and 143.8 in data set [4]. The mean residence time MRT last in the data set “Pharmacokinetics in mice” lay in the range of 4.7 to 7 h. Besides, the time of peak concentration (Tmax) in the data set “Pharmacokinetics in mice” was 0.25 to 1 h. Besides, the AUC(0-t) in the data set “Pharmacokinetics in mice” (ip, 5 mg/kg) turned out to be 569 ng·h/mL; in the data set “Pharmacokinetics in mice” (ip, 10 mg/kg), 924 ng·h/mL; in “Pharmacokinetics in mice” (po, 10 mg/kg) it was 232 ng·h/mL; in “Pharmacokinetics in mice” (po, 100 mg/kg), 1270 ng·h/mL. Besides, the Cmax in “Pharmacokinetics in mice” (ip, 5 mg/kg, ip 5 mg/kg) was found to be 122 ng/mL; in the data set “Pharmacokinetics in mice” (ip, 10 mg/kg, ip 10 mg/kg), 132 ng/mL; in “Pharmacokinetics in mice” (po, 50 mg/kg, po 50 mg/kg) it was 122 ng/mL. In addition, the “improvements in relevant pharmacokinetic (PK) parameters compared to LJ001” value in the data set “Pharmacokinetics in mice” is recorded as over 10 fold. In addition, the CC50 in “in vitro” stood at 10300 nM. For the same compound, in the data set with HIV-1JR-CSF, the “antiviral potency at physiological hematocrits” value was “maintained their antiviral potency”. Also, the “QY at 355 nm, times higher than LJ001” value in data set [5] (355 nm) was “about 2 times”. Further, the “1O2 QY 355 nm” value in data set [5] was 0.43 ± 0.04. For the same compound, in data set [5], the “1O2 QY 532 nm” value is listed as 0.23 ± 0.02.

`CCN1C(=O)/C(=C/c2ccc(-c3ccccc3)o2)OC1=S` [JL101]: the IC50 with NDV stood at 8800 nM.

`C=CCN1C(=O)S/C(=C\c2ccc(-c3ccccc3)o2)C1=O` [LJ025, (Z)-3-allyl-5-((5-phenylfuran-2-yl)methylene)thiazolidine-2,4-dione] gave a melting point of 149 to 151 °C. Moreover, the “fraction protected from the water-soluble quencher (acrylamide)” value in data set [6] is recorded as “over 85%”. In addition, in data set [1], the “Abs Max (λmax)” value was determined as 405 nm and the “AUC (400-750 nm)” value is listed as under 100. For the same compound, the “kT × 10-7” value in [2] is on record as 0.191 ± 0.010 M-1s-1. Also, the “IL / Iw” value in [3] was determined as 3.60. This compound also had a CC50 in “in vitro” of over 50000 nM. In addition, in [4], the “IL / Iw” value came to 2.79. Also, the “1O2 QY 355 nm” value in data set [5] is listed as 0.

In the case of `C1=Cc2nc1c(-c1ccccc1)c1ccc([nH]1)c(-c1ccccc1)c1nc(c(-c3ccccc3)c3ccc([nH]3)c2-c2ccccc2)C=C1` [TPP], the “1O2 QY of reference compound at 532 nm” value in [7] was 0.62.

Regarding `CCN1C(=S)O/C(=C\c2ccc(-c3ccc(OC)cc3OC)o2)C1=S` [JL109, (Z)-5-((5-(2,4-dimethoxyphenyl)furan-2-yl)methylene)-3-ethyloxazolidine-2,4-dithione], the half-maximal inhibitory concentration (IC50) amounted to 0.7 nM with HSV; 3.8 ± 3.9 nM in the data set on NDV (avian paramyxovirus 1, 10 min); 4.5 ± 4.8 nM in the data set with HIV. For the same compound, the “Abs Max (λmax)” value in [1] was 550 nm. The “AUC (400-750 nm)” value in [1] amounted to 178. Moreover, in [2], the “kT × 10-7” value was 2.000 ± 0.100 M-1s-1. In addition, the MRT last in “Pharmacokinetics in mice” was 4.5 to 10 h. Further, the time of peak concentration (Tmax) in “Pharmacokinetics in mice” was 0.25 to 1 h. The area under the curve AUC(0-t) in “Pharmacokinetics in mice” (po, 10 mg/kg) stood at 354 ng·h/mL; in the data set “Pharmacokinetics in mice” (po, 50 mg/kg) it was 595 ng·h/mL; in “Pharmacokinetics in mice” (po, 100 mg/kg) it was 538 ng·h/mL. The Cmax in the data set “Pharmacokinetics in mice” (po, 10 mg/kg, po 10 mg/kg) stood at 88.2 ng/mL; in “Pharmacokinetics in mice” (po, 50 mg/kg, po 50 mg/kg), 127 ng/mL; in “Pharmacokinetics in mice” (po, 100 mg/kg, po 100 mg/kg), 78.2 ng/mL. In addition, in “in vitro”, the CC50 stood at 8510 nM. Besides, in [8], the clinical observations result is listed as “deaths occurred in the initial 3 animals”. Besides, the “1O2 QY 355 nm” value in data set [5] came to 0.37 ± 0.02. For the same compound, the “1O2 QY 532 nm” value in data set [5] came out at 0.38 ± 0.02.

Consider `CCN1C(=S)O/C(=C\c2ccc(-c3ccc(N(C)C)cc3)o2)C1=S` [JL118, (Z)-5-((5-(4-(dimethylamino)phenyl)furan-2-yl)methylene)-3-ethyloxazolidine-2,4-dithione], for which the half-maximal inhibitory concentration (IC50) in the data set with HSV came to 10.1 ± 8.6 nM. The “improved in vitro potency compared to LJ001” value in the data set on enveloped viruses is given as 10-100 fold. For the same compound, the concentration for half-maximal inhibition (IC50) in the data set on NDV (avian paramyxovirus 1, 10 min) was 2.1 ± 1.4 nM. In addition, in data set [1], the “Abs Max (λmax)” value worked out at 610 nm; the “AUC (400-750 nm)” value turned out to be 200; the “total integrated absorption (AUC), times that of LJ001” value was determined as 2 times. The “kT × 10-7” value in [2] was 4.600 ± 0.300 M-1s-1. In the data set with RVFV ZH501, the “time-to-death / survival compared to untreated controls” value is “moderate but significant delay in time-to-death”. In [3], the Kp at 10 min, 50 µM amounted to 2010 and the “IL / Iw” value was found to be 488. Moreover, in “Pharmacokinetics in mice”, the MRT last was 5.3 to 11.4 h, the Tmax lay in the range of 0.25 to 1 h and the “improvements in relevant pharmacokinetic (PK) parameters compared to LJ001” value was over 10 fold. Further, the AUC(0-t) in “Pharmacokinetics in mice” (po, 10 mg/kg) is 1350 ng·h/mL. The same compound registered an area under the curve AUC(0-t) in the data set “Pharmacokinetics in mice” (po, 50 mg/kg) of 841 ng·h/mL. Also, the area under the curve AUC(0-t) in “Pharmacokinetics in mice” (po, 100 mg/kg) is 1160 ng·h/mL. This compound also yielded a CC50 in the data set “in vitro” of 37000 nM. The clinical observations result in data set [8] was “deaths occurred in the initial 3 animals”. Besides, the “antiviral potency at physiological hematocrits” value in the data set on HIV-1JR-CSF was “maintained their antiviral potency”. Moreover, the IC50 in the data set on HIV was 11.7 ± 5.5 nM. In addition, in data set [4], the Kp at 10 min, 50 µM turned out to be 2700 and the “IL / Iw” value was determined as 233. Further, in [5], the “1O2 QY 355 nm” value stood at 0.14 ± 0.01 and the “1O2 QY 532 nm” value was determined as 0.15 ± 0.02.

For the compound `Cc1cn([C@H]2C[C@H](N=[N+]=[N-])[C@@H](CO)O2)c(=O)[nH]c1=O` [AZT], the “t1/2 (inhibition half-life, time-of-addition)” value in the data set on HIV-1JRCSF was over 8.33 h.

As to `O=C1OC2(c3cc(I)c(O)c(I)c3Oc3c2cc(I)c(O)c3I)c2c(Cl)c(Cl)c(Cl)c(Cl)c21` [RB, Rose Bengal], in data set [7], the “1O2 QY of reference compound at 532 nm” value was 0.79.
